From patent US9464044B2, “Compound having ability to inhibit 11Beta-HSD1 enzyme or pharmaceutically acceptable salt thereof, method for producing same, and pharmaceutical composition containing same as active ingredient” (AHN-GOOK PHARMACEUTICAL CO., LTD., priority 2012, dated 2016)

Columns and labels:
KKAy mice = assay: In vivo study of the lowering effect on plasma glucose and plasma insulin in KKAy mouse model; settings: for levels of plasma glucose and plasma insulin: either 100 mg/kg or 50 mg/kg; for Plasma glucose lowering effect / Plasma insulin lowering effect: oral, 3 weeks, after fasting
11β-HSD1 = 11β-HSD1 (Homo sapiens (Human), UniProt P28845); assay: 11β-HSD1 inhibiting activity, HTRF assay with human microsomal fractions; type: biochemical; settings: 160 nM cortisone, 200 μM NADPH, 2 h at 37° C.
11β-HSD1, sequence (P28845 whole entry): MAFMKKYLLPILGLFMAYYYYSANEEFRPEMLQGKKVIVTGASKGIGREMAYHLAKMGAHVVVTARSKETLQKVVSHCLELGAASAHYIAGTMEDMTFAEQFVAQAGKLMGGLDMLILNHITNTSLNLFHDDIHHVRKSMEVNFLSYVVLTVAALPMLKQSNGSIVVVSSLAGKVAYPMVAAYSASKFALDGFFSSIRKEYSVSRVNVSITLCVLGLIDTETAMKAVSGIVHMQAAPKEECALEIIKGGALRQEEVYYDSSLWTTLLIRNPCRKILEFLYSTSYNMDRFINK
Protocol: The inhibiting activity of 11β-HSD1 derived from microsomal fractions was measured using the HTRF assay (62CO2PEB, Cisbio). […] Europium (Eu^3+) cryptate and XL665-conjugated cortisol were then added to each well and incubated for an additional 2 h at room temperature. The Cortisol concentration was calculated u sing a calibration curve. The IC50 values were calculated from dose response curves using GraphPad Prism software.

| SMILES | levels of plasma glucose and plasma insulin (KKAy mice) | IC50 (11β-HSD1) [nM] | further results |
| --- | --- | --- | --- |
| CC(C)(NS(=O)(=O)c1c(F)cccc1F)C(=O)NC1C2CC3CC1CC(C(N)=O)(C3)C2 (stereo not shown) [Example 84, E-4-[2-(2,6-difluoro-benzenesulfonylamino)-2-methylpropanamido]adamantan-1-carboxylic acid amide] | significantly reduced |  | Plasma glucose lowering effect (KKAy mice; 50 mg/kg): 19%; Plasma insulin lowering effect (KKAy mice; 50 mg/kg): 43% |
| NC(=O)C12CC3CC(C1)C(NC(=O)c1cccc([N-]S(=O)(=O)c4cccc(Cl)c4F)c1)C(C3)C2.[Na+] (stereo not shown) [Example 113, E-sodium[3-((5-carbamoyladamantan-2-yl)carbamoyl)phenyl]-2-fluoro-3-chloro-benzenesulfonylamide] | significantly reduced | 2.7 | Plasma glucose lowering effect (KKAy mice; 100 mg/kg): 28%; Plasma insulin lowering effect (KKAy mice; 100 mg/kg): 60% |
| CC(C)(NS(=O)(=O)c1ccccc1F)C(=O)NC1C2CC3CC1CC(C(N)=O)(C3)C2 (stereo not shown) [Example 71, E-4-[2-(2-fluoro-benzenesulfonylamino)-2-methylpropanamido]-adamantan-1-carboxylic acid amide] | significantly reduced | 0.6 | Plasma glucose lowering effect (KKAy mice; 100 mg/kg): 27%; Plasma insulin lowering effect (KKAy mice; 100 mg/kg): 40% |
| NC(=O)C12CC3CC(C1)C(NC(=O)c1cccc(NS(=O)(=O)c4cc(Cl)cc(Cl)c4)c1)C(C3)C2 (stereo not shown) [Example 119, E-4-[3-(3,5-dichloro-benzenesulfonylamino)benzamido]-adamantan-1-carboxylic acid amide] | significantly reduced |  | Plasma glucose lowering effect (KKAy mice; 50 mg/kg): 47%; Plasma insulin lowering effect (KKAy mice; 50 mg/kg): 52% |
| CN(CC1(C(=O)NC2C3CC4CC2CC(C(N)=O)(C4)C3)CC1)S(=O)(=O)c1ccccc1F (stereo not shown) [Example 22, E-4-[1-((2-fluoro-N-methyl-benzenesulfonylamino)methyl)cyclopropanecarboxamido]-adamantan-1-carboxylic acid amide] | significantly reduced |  |  |
| NC(=O)C12CC3CC(C1)C(NC(=O)C1(NS(=O)(=O)c4ccc(F)cc4)CC1)C(C3)C2 (stereo not shown) [Example 42, E-4-[1-(4-fluoro-benzenesulfonylamino)cyclopropanecarboxamido]-adamantan-1-carboxylic acid amide] |  | 6.4 |  |
| Cc1c(Cl)cccc1S(=O)(=O)NCC1(C(=O)NC2C3CC4CC(C3)CC2C4)CC1 (stereo not shown) [Example 1, N-(adamantan-2-yl)-1-[(3-chloro-2-methylbenzenesulfonylamino)methyl]cyclopropanecarboxamide] |  | 14.2 |  |
| Cc1cc(S(=O)(=O)NCC2(C(=O)NC3C4CC5CC3CC(C(N)=O)(C5)C4)CC2)c(F)cc1Cl (stereo not shown) [Example 15, E-4-[1-((4-chloro-2-fluoro-5-methyl-benzenesulfonylamino)methyl)cyclopropanecarboxamido]-adamantan-1-carboxylic acid amide] |  | 28 |  |
| O=C(NC1C2CC3CC1CC(O)(C3)C2)C1(CNS(=O)(=O)c2ccccc2F)CC1 (stereo not shown) [Example 2, 1-[(2-fluoro-benzenesulfonylamino)methyl]-N-(5-hydroxyadamantan-2-yl)cyclopropanecarboxamide] |  | 26.6 |  |
| Cc1c(Cl)cccc1S(=O)(=O)NCC1(C(=O)NC2C3CC4CC2CC(C(N)=O)(C4)C3)CC1 (stereo not shown) [Example 5, E-4-[1-((3-chloro-2-methyl-benzenesulfonylamino)methyl)cyclopropanecarboxamido]-adamantan-1-carboxylic acid amide] |  | 2.7 |  |
| CC(C)(CNS(=O)(=O)c1cccc(Cl)c1)C(=O)NC1C2CC3CC1CC(C(N)=O)(C3)C2 (stereo not shown) [Example 67, E-4-(3-(3-chlorobenzenesulfonylamino)-2,2-dimethylpropanamido)adamantan-1-carboxylic acid amide] |  | 7.1 |  |
| NC(=O)C12CC3CC(C1)C(NC(=O)C1(CNS(=O)(=O)c4ccccc4F)CC1)C(C3)C2 (stereo not shown) [Example 3, E-4-[1-((2-fluoro-benzenesulfonylamino)methyl)cyclopropanecarboxamido]-adamantan-1-carboxylic acid amide] | significantly reduced |  |  |
| NC(=O)C12CC3CC(C1)C(NC(=O)C1(CNS(=O)(=O)c4cccc(Cl)c4)CC1)C(C3)C2 (stereo not shown) [Example 7, E-4-[1-((3-chloro-benzenesulfonylamino)methyl)cyclopropanecarboxamido]-adamantan-1-carboxylic acid amide] |  | 2.6 |  |
| NC(=O)C12CC3CC(C1)C(NC(=O)c1cccc(NS(=O)(=O)c4ccc(F)cc4)c1)C(C3)C2 (stereo not shown) [Example 94, E-4-[3-(4-fluoro-benzenesulfonylamino)-benzamido]-adamantan-1-carboxylic acid amide] |  | 75.7 |  |
| NC(=O)C12CC3CC(C1)C(NC(=O)c1cccc(NS(=O)(=O)c4ccc(F)cc4F)c1)C(C3)C2 (stereo not shown) [Example 121, E-4-[3-(2,4-difluoro-benzenesulfonylamino)-benzamido]-adamantan-1-carboxylic acid amide] |  | 7.8 |  |
